The numbers were not newly measured in article PMC10288581 (Frontiers in Pharmacology, 2023), which cites them from elsewhere.

In one data set the test system is CYP2C19. Set-up: method as in Obach et al., 2006. To be noted: in-vitro data; ref Obach et al., 2006; cited from earlier work.
A further data set relates to MRP2. Also on record: method as in Vermeer et al., 2016. Particulars: in-vitro data; ref Vermeer et al., 2016; cited from earlier work.
A further data set deals with P-glycoprotein. Set-up: method as in Vermeer et al., 2016. Particulars: in-vitro data; ref Vermeer et al., 2016; cited from earlier work.
In the next data set the test system is OATP1B1. Also on record: method as in Müller and Fromm, 2011; Vermeer et al., 2016. To be noted: ref Müller and Fromm, 2011; Vermeer et al., 2016; cited from earlier work.
For data set [1] the following is noted: ref Kristin et al., 2017; cited from earlier work.
A further data set concerns OATP 1B3. Also on record: method as in Müller and Fromm, 2011; Vermeer et al., 2016. To be noted: ref Müller and Fromm, 2011; Vermeer et al., 2016; cited from earlier work.
Data set [2] deals with CYP3A4. Also on record: method as in Elsby et al., 2019. To be noted: ref Elsby et al., 2019; read-out: inhibition constant Ki; cited from earlier work.
For data set [3] the following is noted: ref Langtry and Brogden, 1997; cited from earlier work.
In data set [4] the test system is CYP3A4. Set-up: method as in Obach et al., 2006; Galetin et al., 2007. To be noted: ref Obach et al., 2006; Galetin et al., 2007; cited from earlier work.
A further data set deals with 2C9. Also on record: method as in Obach et al., 2006. Particulars: in-vitro data; ref Obach et al., 2006; cited from earlier work.

As usually defined, the IC50 is the concentration that gives 50% inhibition. Broadly, the Ki is the dissociation constant of the complex between target and ligand, obtained from inhibition or displacement. `CC[C@H]1OC(=O)[C@H](C)[C@@H](O[C@H]2C[C@@](C)(OC)[C@@H](O)[C@H](C)O2)[C@H](C)[C@@H](O[C@@H]2O[C@H](C)C[C@H](N(C)C)[C@H]2O)[C@](C)(OC)C[C@@H](C)C(=O)[C@H](C)[C@@H](O)[C@]1(C)O` [clarithromycin, 6-O-Methylerthromycin]: in the data set with CYP2C19, the “inhibitory concentration of CYP2C19” value is reported as 11%. Moreover, the half-inhibitory concentration (IC50) is greater than 50 µM in the data set on MRP2, 8.9 ± 0.5 µM with P-glycoprotein, 5.3 ± 1.3 µM in the data set with OATP1B1 and 14 ± 2 µM with OATP 1B3. Further, the BCS class result in data set [1] was “class-II”. Besides, the Ki with CYP3A4 [2] was […]. For the same molecule, in [3], the protein binding is 42%–72. The “potential to inhibit the CYP3A4 at the intestinal level” value in the data set with CYP3A4 [4] was 60%–70. Also, the “inhibitory concentration of 2C9” value with 2C9 was 4%.
